Assay results as given in PubChem BioAssay (NCI).
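Growth conditions: 96-well plates. Treatment: test compound, 48 hours, 5 concentrations. Analysis: linear interpolation between bracketing concentrations; unreached endpoints set to highest concentration. Here, GI50 denotes the concentration required for 50% inhibition of growth. The concentration for full growth arrest is given as TGI.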

Experiments:
Experiment in all cases: growth of human tumour cells (NCI), 48 h
[1] = test system: CAKI-1 renal
[2] = test system: SF-539 CNS
[3] = test system: K-562 leukemia
[4] = test system: A498 renal
[5] = test system: M14 melanoma
[6] = test system: U251 CNS
[7] = test system: PC-3 prostate
[8] = test system: UACC-62 melanoma
[9] = test system: SR leukemia
[10] = test system: TK-10 renal
[11] = test system: EKVX NSCLC
[12] = test system: SF-268 CNS
[13] = test system: MALME-3M melanoma
[14] = test system: OVCAR-5 ovarian
[15] = test system: NCI/ADR-RES ovarian
[16] = test system: KM12 colon
[17] = test system: COLO 205 colon
[18] = test system: MCF7 breast
[19] = test system: HL-60(TB) leukemia
[20] = test system: OVCAR-8 ovarian
[21] = test system: SNB-75 CNS
[22] = test system: RXF 393 renal
[23] = test system: HCC-2998 colon
[24] = test system: SW-620 colon
[25] = test system: UO-31 renal
[26] = test system: CCRF-CEM leukemia
[27] = test system: RPMI-8226 leukemia
[28] = test system: UACC-257 melanoma
[29] = test system: MDA-MB-468 breast
[30] = test system: SK-MEL-5 melanoma
[31] = test system: MDA-MB-435
[32] = test system: SF-295 CNS
[33] = test system: OVCAR-4 ovarian
[34] = test system: HT29 colon
[35] = test system: NCI-H522 lung
[36] = test system: ACHN renal
[37] = test system: SK-MEL-28 melanoma
[38] = test system: IGROV1 ovarian
[39] = test system: NCI-H460 lung
[40] = test system: SN12C renal
[41] = test system: HOP-92 NSCLC
[42] = test system: SNB-19 CNS
[43] = test system: LOX IMVI melanoma
[44] = test system: HCT-15 colon
[45] = test system: DU-145 prostate
[46] = test system: T-47D breast
[47] = test system: MOLT-4 leukemia
[48] = test system: SK-OV-3 ovarian
[49] = test system: BT-549 breast
[50] = test system: NCI-H23 lung
[51] = test system: 786-0 renal
[52] = test system: OVCAR-3 ovarian
[53] = test system: HCT-116 colon
[54] = test system: A549 NSCLC
[55] = test system: NCI-H226 lung
[56] = test system: HOP-62 NSCLC
[57] = test system: MDA-MB-231 breast

Q: Which results are given for `CC[C@]12C=CCN3CC[C@@]4(c5ccc(OC)cc5N(C)[C@H]4[C@@](O)(C(=O)OC)[C@@H]1OC(=O)CCCC[P+](c1ccc(C)cc1)(c1ccc(C)cc1)c1ccc(C)cc1)[C@@H]32`?
A: GI50 [1]: 2850 nM; TGI [1]: 7150 nM; GI50 [2]: 588 nM; TGI [2]: 1620 nM; GI50 [3]: 300 nM; TGI [3]: 1870 nM; GI50 [4]: 2090 nM; TGI [4]: 5240 nM; GI50 [5]: 558 nM; TGI [5]: 1670 nM; GI50 [6]: 332 nM; TGI [6]: 1410 nM; GI50 [7]: 313 nM; TGI [7]: 1400 nM; GI50 [8]: 406 nM; TGI [8]: 1180 nM; GI50 [9]: 365 nM; TGI [9]: 1500 nM; GI50 [10]: 1040 nM; TGI [10]: 2440 nM; GI50 [11]: 680 nM; TGI [11]: 2590 nM; GI50 [12]: 692 nM; TGI [12]: 2110 nM; GI50 [13]: 482 nM; TGI [13]: 1100 nM; GI50 [14]: 592 nM; TGI [14]: 1530 nM; GI50 [15]: 12000 nM; TGI [15]: 34400 nM; GI50 [16]: 431 nM; TGI [16]: 1480 nM; GI50 [17]: 200 nM; TGI [17]: 384 nM; GI50 [18]: 278 nM; TGI [18]: 1150 nM; GI50 [19]: 191 nM; TGI [19]: 560 nM; GI50 [20]: 1130 nM; TGI [20]: 2490 nM; GI50 [21]: 242 nM; TGI [21]: 854 nM; GI50 [22]: 329 nM; TGI [22]: 1240 nM; GI50 [23]: 416 nM; TGI [23]: 1510 nM; GI50 [24]: 601 nM; TGI [24]: 1960 nM; GI50 [25]: 2040 nM; TGI [25]: 7110 nM; GI50 [26]: 476 nM; TGI [26]: 2060 nM; GI50 [27]: 202 nM; TGI [27]: 1470 nM; GI50 [28]: 562 nM; TGI [28]: 1900 nM; GI50 [29]: 150 nM; TGI [29]: 476 nM; GI50 [30]: 590 nM; TGI [30]: 1240 nM; GI50 [31]: 472 nM; TGI [31]: 1520 nM; GI50 [32]: 691 nM; TGI [32]: 1870 nM; GI50 [33]: 636 nM; TGI [33]: 3770 nM; GI50 [34]: 268 nM; TGI [34]: 783 nM; GI50 [35]: 296 nM; TGI [35]: 1060 nM; GI50 [36]: 1800 nM; TGI [36]: 4590 nM; GI50 [37]: 437 nM; TGI [37]: 1600 nM; GI50 [38]: 351 nM; TGI [38]: 1150 nM; GI50 [39]: 498 nM; TGI [39]: 1710 nM; GI50 [40]: 410 nM; TGI [40]: 1380 nM; GI50 [41]: 295 nM; TGI [41]: 1160 nM; GI50 [42]: 342 nM; TGI [42]: 1320 nM; GI50 [43]: 541 nM; TGI [43]: 1640 nM; GI50 [44]: 2020 nM; TGI [44]: 4350 nM; GI50 [45]: 728 nM; TGI [45]: 4310 nM; GI50 [46]: 305 nM; TGI [46]: 1960 nM; GI50 [47]: 451 nM; TGI [47]: 1780 nM; GI50 [48]: 535 nM; TGI [48]: 1390 nM; GI50 [49]: 389 nM; TGI [49]: 1150 nM; GI50 [50]: 512 nM; TGI [50]: 1500 nM; GI50 [51]: 902 nM; TGI [51]: 2370 nM; GI50 [52]: 425 nM; TGI [52]: 1560 nM; GI50 [53]: 342 nM; TGI [53]: 1460 nM; GI50 [54]: 632 nM; TGI [54]: 2760 nM; GI50 [55]: 336 nM; TGI [55]: 1450 nM; GI50 [56]: 731 nM; TGI [56]: 2000 nM; GI50 [57]: 238 nM; TGI [57]: 654 nM
